Patent publication US10314870B2, “Tropism modified cancer terminator virus (Ad.5/3 CTV;AD.5/3-CTV-M7)” (priority 2012, dated 2019)

What was measured:
[1] = cited from earlier work
GBM6 cells [2] = experiment: Autophagy, LC3-GFP vesicle formation; assay type: cell-based, human
Description: FIG. 19A-D. Induction of ER stress and autophagy plays a role in the interaction between MDA-7/IL-24 and HDACIs. Panel A. GBM6 cells were transfected in quadruplicate with a plasmid to express an LC3 (ATG8)-GFP fusion protein and in parallel transfected with scrambled siRNA (siSCR) or an siRNA to knock down Beclin/expression. Twenty-four h after transfection cells were treated with GST or GST-MDA-7 (20 nM) and/or SBHA (3 μM). Cells (a representative of 40 per well per time point) were examined 6 h, 12 h and 24 h after treatment using an Axiovert microscope (x40) for the formation of punctate vesicles containing LC3-GFP. Data are plotted as the number of LC3-GFP vesicles per cell (n=-2, +/− SEM) (*p<0.05 greater than GST+VEH; **p<0.05 greater than GST-MDA-7+VEH). Panel B. GBM6 cells were transfected with scrambled siRNA (siSCR) or an siRNA to knock down Beclinl expression. Twenty-four h after transfection cells were treated with GST or GST-MDA-7 (20 nM) and/or SBHA (3 μM). Cells were isolated 48 h later and viability determined by trypan blue exclusion (n=3, +/− SEM) (#p<0.05 less than corresponding value in siSCR cells). Panel C. GBM6 cells were transfected with an empty vector control plasmid or a plasmid to express dominant negative PERK. […] Cells were isolated 6 h after exposure and the phosphorylation of PERK and eIF2α determined (representative n=2). […]

[3] = test system: primary human GBM cells (GBM6, GBM12); experiment: Cell death by trypan blue exclusion in primary human GBM cells; assay type: cell-based
From the text: The pooled cell pellets were resuspended and mixed with trypan blue dye.

GBM6 cells [4] = experiment: Colony formation assay with Calcusyn analysis; assay type: cell-based, human; conditions: GBM cells
Description: GBM6 cells were plated as single cells (500-2,500 per 60-mm dish, in sextuplicate). […] Forty-eight h later cells were washed free of drugs and colonies were permitted to form for 20 days. (n=3, +/−SEM). Using the Calcusyn for Windows program we calculated the fraction affected (Fa) and the Combination Index (CI). A CI value of less than 1.00 indicates a synergy of interaction.

[5] = test system: MIA PaCa-2 and BxPC-3 cells; experiment: ROS formation, carboxy-H2DCFDA fluorescence; assay type: cell-based, human; conditions: 200 μM
Description: FIG. 14. Temporal kinetics of reactive oxygen species (ROS) formation induced by POH. MIA PaCa-2 and BxPC-3 cells were stained with carboxy-H2DCF-DA in PBS for 30 min followed by treatment of POH, and fluorescence was measured using a Flurometer with a green filter at the indicated time points. The readings noted were the difference between POH-treated group compared to untreated control.
To determine ROS production, cells were stained with 100 μl of 10 μM carboxy-H2DCFDA (Molecular Probes™, Invitrogen) in PBS for 30 min followed by treatment with Perillyl alcohol and fluorescence was measured with a Fluorometer using a green filter at the indicated time points.

[6] = test system: MIA PaCa-2/luc xenografts; experiment: MIA PaCa-2/luc xenografts on both flanks, Ad/MB by tail vein with UTMD on left tumor; assay type: in vivo, nude mice; conditions: POH 75 mg/kg i.p. daily; Ad.5-vec+POH compared to Ad.5/3-vec
Description: FIG. 11A-E. Ad.5/3-CTV-M7 in combination with POH completely eradicates primary and distant tumors in nude mice bearing human pancreatic tumor xenografts. Tumor xenografts generated from MIA-PaCa-2 cells stably expressing a luciferase gene (MIA PaCa-2-luc) were established in both the left and right flanks of nude mice. Tumors on the left flank were sonoporated for 10 min following tail-vein injection of the indicated complement treated Ad/MB complex, and treated as described in Materials and Methods section for 3 weeks starting from day 14 (1 injection/week). POH was administered i.p. daily for 4 weeks from day 1 of implantation of cells in nude mice. (A) Bioluminescence imaging (BLI) was performed using Xenogen In Vivo Imaging System (IVIS). BLI was performed every week and luminescence was quantified and tumor growth response curve of the left flank (B) and right flank or distant tumor (C) was plotted. (D) Secreted MDA-7/IL-24 in blood serum was measured using an MDA-7/IL-24 ELISA kit. (E) There was significant increase in ‘bystander’ effect of MDA-7/IL-24 in inhibiting in vivo tumor growth as measured by BLI. […]
Athymic nude mice were injected s.c. in both flanks with 5×10^6 MIA PaCa-2/luc (a stable clone of MIA PaCa-2 cells containing integrated pGL-3/luc). […] Images were analyzed by Living Image software. […]

PDAC cell lines = experiment: MTT cell viability assay in pancreatic cancer cell lines; assay type: cell-based, human; conditions: 200 μM
Description: FIGS. 13A-D. Cancer-specific oncolytic effects of CTV-M7 in pancreatic cancer cells. Pancreatic cancer cells were treated with non-replicating Ad.5-mda-7 or Ad.5/3-mda-7 as well as conditional replication-competent Ads (CRCA) i.e., Ad.5-CTV-M7 and Ad.5/3-CTV-M7 and MTT assays were performed after 3 days. IC50 was calculated using GraphPad Prism 5.0. Points; mean±S.E. of three different experiments each performed in quadruplicate.
Pancreatic cancer cell lines were infected with Ad in incomplete medium for 3 h followed by treatment with Perillyl alcohol (POH) (200 μM) in complete medium (10% FBS) for 72 h, and cell proliferation assays were performed at O.D. 560 nm using cell proliferation assays after adding 100 μl of 3-(4,5-dimethylthiazol-2-yl)-2,5-diphenyltetrazolium bromide (Sigma Aldrich) (MTT) dye (1 mg/ml) (Sigma-Aldrich).

Molecule: C=C(C)[C@@H]1CC=C(C(=O)O)CC1 [Perillic acid]
- plasma concentration associated with minimal toxicities ([1]; plasma): 500 µM

Molecule: O=C(CCCCCCC(=O)NO)NO [SBHA, Suberohydroxamic acid]
- effect on MDA-7/IL-24 stimulated autophagy levels (GBM6 cells [2]; SBHA 3 μM with GST-MDA-7 20 nM): enhanced MDA-7/IL-24 stimulated autophagy levels
- effect on lethality of MDA-7/IL-24 ([3]; GBM6, GBM12 infected with Ad.5-mda-7 moi 10, Na Valproate 0.3-1.0 mM, SBHA 0.3-5.0 μM, 48 h, dose-dependent): enhanced the lethality of MDA-7/IL-24
- interaction with MDA-7/IL-24 protein in colony formation (GBM6 cells [4]): synergized

Molecule: CCOC(=O)C1=C(N)Oc2ccc(Br)cc2C1C(C#N)C(=O)OCC (centres unmarked) [HA14-1]
- effect on lethality of Ad.5-mda-7 ([3]; GBM6, Ad.5-mda-7 moi 10, obatoclax 0-200 nM or HA14-1 0-10 μM, 24 h): enhanced the lethality of Ad.5-mda-7

Molecule: C=C(C)[C@@H]1CC=C(CO)CC1 [POH, perillyl alcohol]
- side effects ([1]; POH 800-1600 mg/m^2/dose): minimal side effects
- stability and detection in plasma ([1]; plasma): very unstable and cannot be detected in plasma
- ROS levels at 24 h ([5]; 24 h): baseline levels
- time of maximum ROS levels ([5]; time course): 6 h
- ROS induction ([5]; wild type and mutant K-ras pancreatic cell lines): sufficient to induce significant amounts of ROS
- effect of the POH dose with empty vector on tumor growth [6]: non-toxic but therapeutically inactive
- lethality and proliferation of PDAC cell lines (PDAC cell lines): not lethal and does not affect proliferation

Molecule: CCCC(CCC)C(=O)[O-].[Na+] [sodium valproate]
- interaction with MDA-7/IL-24 protein in colony formation (GBM6 cells [4]): synergized

B1: GST-MDA-7: bacterially synthesized GST-MDA-7 protein (protein)
chain: QEFHFGPCQVKGVVPQKLWEAFWAVKDTMQAQDNITSARLLQQEVLQNVSDAESCYLVHTLLEFYLKTVFKNYHNRTVEVRTLKSFSTLANNFVLIVSQLQPSQENEMFSIRDSAHRRFLLFRRAFKQLDVEAALTKALGEVDILLTWMQKFYKL
- autophagy (LC3-GFP vesicle) levels (GBM6 cells [2]; GST-MDA-7 20 nM, 6 h, 12 h, 24 h, time-dependent): increased autophagy
